Data as given in patent publication US6350769B1 (The Regents of the University of California, priority 1999, dated 2002).

Legend:
lymph node T cell = experiment: antigen-primed lymph node T cell proliferative recall response (3H-thymidine incorporation); type: cell-based, NOD, Balb/c and AKR mice; conditions: for effect on GABA-mediated inhibition of T cell proliferation / immuno-inhibitory effect of GABA on co-incubation with the compound: co-incubation; for effect on GABA-mediated inhibition of T cell proliferation: 1 μM-500 μM; for immuno-inhibitory effect of GABA on co-incubation with the compound: different (also high) concentrations of GABA, GADp35
Experimental: NOD, Balb/c and AKR mice were immunized with an immunogenic foreign (HEL) or self (GAD) peptide in 50% CFA. […] Groups of 5 mice were tested in two independent experiments.
Lymph node mononuclear cells from GADp35 primed NOD mice were pretreated with different concentrations of muscimol or baclofen in vitro, and then challenged with 7 μM GADp35 to stimulate antigen specific T cell proliferation. The data are presented as the per cent ^3H-thymidine incorporation relative to control peptid-estimulated cells without muscimol or baclofen treatment. Lymph node mononuclear cells in medium alone served as negative controls. […] Groups of 5-6 mice were tested in two independent experiments.
Groups of 5 mice were tested in three independent experiments.
Lymph node mononuclear cells from NOD mice which were immunized with GADp35 were cultured with bicuculline, RU5135 or picrotoxin. […] The data are expressed as the per cent ^3H-thymidine incorporation relative to control antigen-stimulated cells without any drug treatment. […] Groups of 5-6 mice were tested in three independent experiments.
Three strains of mice with different MHC class II alleles were immunized with an immunogenic peptide from hen egg lysozyme (HEL). […] Mice were injected with 20 nM peptide in 50% complete Freund's adjuvant (CFA, Gibco) in their hind food-pad.
GAD peptides were selected from an overlapping set of peptides which span the GAD molecule (Atkinson et al. (1994) J. Clin. Invest. 94:2125-2129). GAD65 peptide 35 (GADp35) contains a self-antigen determinant for NOD (H-2^NOD; Taconic Farms) and BALB/c (H-2^d) mice (Jackson Laboratory) and GAD peptide 25 (GADp25) contains a self-antigen determinant for AKR (H-2^k) mice (Jackson Laboratory; Kaufman et al. (1993) Nature 366:69-72). Following immunization with 20 nM of immunogenic GAD peptide in 50% complete Freund's adjuvant (CFA, Gibco), T cell proliferation was assayed as described above.

[1] = tested on: lymph node mononuclear cells from GADp35 immunized NOD mice; experiment: IL-2 production by antigen stimulated T cells (CTLL proliferation readout); type: cell-based; conditions: GADp35 at 2, 7 and 20 micromolar; 36 hours; different concentrations of GABA
Experimental: The IL-2 activity in supernatant was determined by IL-2-dependent CTLL proliferation. The data are expressed as IL-2 units/ml±SD.
(§1) Mice (6-8 weeks in age) were injected with 20 nM GADp35 peptide in 50% complete Freund's adjuvant (CFA, Gibco) in their hind food-pad. […] The supernatant of the cultured cells was harvested and the activity of IL-2 was measured using the IL-2-dependent cell line CTLL-2. Recombinant mouse IL-2 (Genzyme) was used as a standard.

[2] = tested on: mononuclear splenic cells; experiment: T cell response to PMA and ionomycin; type: cell-based, mice; conditions: 10 μM-10 mM
NOD-scid mice = experiment: adoptive transfer of IDDM to NOD-scid mice; type: in vivo; conditions: 600 μg/day
Description: Ten to twenty million splenocytes from NOD mice with recent onset of IDDM were intravenously injected into recipient 6-week-old mice. […] (n=12 for both groups).
A NOD strain congenic for the severe combined immunodeficiency (scid) mutation developed to study diabetogenesis in NOD mice was used in the adoptive transfer experiment. Neither insulitis nor diabetes is observed in the NOD-scid mice because they lack functional lymphocytes. This ensured that the T cells responsible for diabetes in recipient NOD-scid mice were derived from the diabetic donor NOD mice. Only female NOD mice were used since they incur a higher incidence of IDDM than males.
The control mice received a placebo pellet instead the GABA pellet. The mice were monitored for diabetes onset by testing their urine glucose levels with Tes-tape and blood glucose levels with a glucometer. The onset of IDDM is defined as two consecutive blood glucose readings of over 300 mg/dl.

CTLL-2 cells = experiment: control CTLL-2 cell response to recombinant murine IL-2; type: cell-based, mouse; conditions: 10 μM-10 mM
Experimental: as §1

splenic T cell = experiment: anti-CD3 stimulated splenic T cell proliferation (3H-thymidine incorporation); type: cell-based, Balb/c mice
Experimental: During the last 8 hours of incubation, ^3H-thymidine (1 μCi/well) was added into each well to determine T cell proliferation. […] The background level of ^3H-thymidine incorporation in medium alone was 1,965-2,400 cpm. Groups of 5-6 mice were tested in two independent experiments.
The data are presented as the mean percent ^3H-thymidine incorporation relative to the positive control from groups of 5-6 mice which were tested in 2-3 independent experiments.

NOD mice = experiment: antigen-primed DTH response (KLH footpad swelling); type: in vivo
Experimental: The next day, the mice were immunized with KLH in 50% CFA at the base of their tail. One week later, the mice were challenged with KLH in PBS in their right footpad, while the left footpad received ovalbumin in PBS as a control. Footpad swelling was expressed as the average size increase of the KLH injected footpad compared to the control footpad±SD (n=5 mice/group, *p<0.005, **p<0.002, ***p<0.001).
The next day, the mice were immunized with 100 μg keyhole limpet hemocyanin (KLH, Sigma), a prototypic foreign antigen, in 50% CFA at the base of their tail. One week later, the mice were challenged with KLH (100 μg in 25 μl PBS) in their right footpad, while the left footpad received ovalbumin (100 μg in […] PBS) as a control. Both hind feet were measured before injection and at 24, 48, 72 and 96 hrs post injection using a monostat caliper. Footpad swelling was expressed as the average size increase (in millimeters) of the KLH-injected footpad compared to the control ovalbumin-injected footpad of each animal. The measurements were conducted in a blinded fashion on coded animals.

[3] = 21-day slow release GABA pellet
[4] = NOD, Balb/c and AKR mice, 7 μM peptide, different concentrations of GABA

Q: With `C=CC(N)CCC(=O)O` (centres unmarked) [γ-vinyl-GABA] as the compound, how does the “effect on GABA-mediated inhibition of T cell proliferation” value (lymph node T cell) read?
A: did not significantly affect

Q: Which “effect on GABA inhibition of T cell responses” value (lymph node T cell; 3 μM with different concentrations of GABA, 7 μM GADp35, 96 hours) does the source give for `CCCC(C)C1(CC)C(=O)NC(=O)NC1=O` (centres unmarked) [pentobarbital] here?
A: potentiated the actions of GABA

Q: And the “impact of compound without GABA on antigen-primed T cell proliferation” value (lymph node T cell; 3 μM, without GABA)?
A: little impact

Q: `O=C(O)C1CCCNC1` (centres unmarked) [nipecotic acid] was tested. Which “effect on GABA-mediated inhibition of T cell proliferation” value (lymph node T cell) did it give?
A: did not significantly affect

Q: Which “immuno-inhibitory effect of GABA on co-incubation with the compound” value (lymph node T cell) does the source give for picrotoxin here?
A: almost abolished

Q: What does the source list for `NCCCC(=O)O` [GABA, γ-Aminobutyric acid]?
A: antigen-induced IL-2 secretion [1]: reduced in a dose-dependent manner; effect on T cell response to PMA and ionomycin [2]: did not significantly affect; diabetes incidence after adoptive transfer (NOD-scid mice; [3]): significantly reduced diabetes incidence; onset of IDDM beginning at (NOD-scid mice; [3]): 4 weeks; onset of IDDM in mice that developed it (NOD-scid mice; [3]): delayed onset; onset of IDDM beginning at (NOD-scid mice; 60-day slow release GABA pellet): 7 weeks; CTLL-2 cell response to recombinant murine IL-2 on addition of compound (CTLL-2 cells): unaffected; impact on T cell survival (splenic T cell; in vitro culture): little impact on T cell survival; T cell proliferation with the compound itself (without anti-CD3) (splenic T cell; without anti-CD3): failed to stimulate T cell proliferation; signs of toxicity (NOD mice; mice implanted with GABA-releasing pellets (600 μg GABA/day)): no obvious signs of toxicity; less footpad swelling in response to KLH than placebo-treated mice (NOD mice; pellet releasing 600 μg/day GABA, under the skin, 24-72 hour response period, p<0.005): 30-50%; T cell recall proliferation to foreign antigen (HEL peptides) (lymph node T cell; [4]): inhibit T cell proliferation to the immunogens in a dose-dependent manner; T cell recall proliferation to self-antigen (GAD peptides) (lymph node T cell; [4]): inhibit proliferative T cell responses to the injected antigen in all three strains of mice in a dose-dependent manner

Q: Which “immuno-inhibitory effect of GABA on co-incubation with the compound” value (lymph node T cell) does the source give for `C[C@]12CC[C@@H](O)C[C@H]1CC[C@@H]1[C@@H]2C(=O)C[C@]2(C)N=C(N)C[C@@H]12` [RU5315] here?
A: greatly reduced

Q: How did the “effect on T cell proliferative responses, alone or co-incubated with GABA” value (lymph node T cell; 10 μM-10 mM) turn out when `NCCC(=O)O` [β-alanine] was run?
A: little effect

Q: Which “effect on T cell proliferation” value (lymph node T cell; 10 μM-10 mM) does the source give for `NCC(CC(=O)O)c1ccc(Cl)cc1` (centres unmarked) [baclofen] here?
A: little effect

Q: And the “interference with the immuno-suppressive action of muscimol” value (lymph node T cell; 10 μM-10 mM, with muscimol)?
A: did not interfere

Q: For `N[C@@H](CCC(=O)O)C(=O)O` [glutamic acid], which “effect on T cell proliferative responses, alone or co-incubated with GABA” value (lymph node T cell; 10 μM-10 mM) is on record?
A: little effect

Q: Which “anti-CD3 induced T cell proliferation” value (splenic T cell; different concentrations) does the source give for `NCc1cc(=O)[nH]o1` [muscimol] here?
A: inhibit in a dose-dependent manner

Q: And the “reduction of antigen primed T cell responses” value (lymph node T cell; 300 μM, GADp35 primed NOD mice)?
A: approximately 40%

Q: What about the “antigen-induced T cell proliferation” value (lymph node T cell; different concentrations, 7 μM GADp35) of the same compound?
A: inhibit in a dose-dependent manner
